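1) Cells in 96-well plates. 2) Compound, 48 h, 5 concentrations. 3) Linear interpolation between surrounding doses. 4) Unreached endpoint = highest concentration. Definition used: TGI = concentration required for complete inhibition of growth.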 Where a SMILES comes first, the peptide text is derived from it. [ ]: non-standard residue; d: D form. ξ: configuration not given here. ξLac(3-iPr) = CC(C)CC(O)C(=O)O; NMeV = CN[CH](C(=O)O)C(C)C; NMeA = CN[CH](C)C(=O)O; βAla = NCCC(=O)O

Consider 8 compounds from PubChem BioAssay (NCI).

Holding throughout (experiment): growth of human tumour cells (NCI), 48 h
For assay [1], the system named is SF-295 CNS.
The test system of assay [2] is HCC-2998 colon.
The subject of assay [3] is M14 melanoma.
Assay [4] deals with IGROV1 ovarian.
In assay [5] the test system is OVCAR-8 ovarian.
In assay [6] the test system is CCRF-CEM leukemia.
Assay [7] relates to MCF7 breast.
Assay [8] relates to HL-60(TB) leukemia.
The test system of assay [9] is MDA-N.
The subject of assay [10] is MDA-MB-435.
Assay [11] deals with A549 NSCLC.
Assay [12] has as its system SK-OV-3 ovarian.
Assay [13] deals with OVCAR-4 ovarian.
For assay [14], the system named is NCI-H460 lung.
For assay [15], the system named is NCI-H23 lung.
Assay [16] concerns MOLT-4 leukemia.
The test system of assay [17] is MDA-MB-231 breast.
Assay [18] deals with HCT-15 colon.
The test system of assay [19] is SR leukemia.

`C[N+](C)(C)c1cc2c(nn1)Nc1ccccc1S2`: the TGI in assay [1] came out at 49.7 µM; in assay [2] it was 71.5 µM; in assay [3], 40 µM; in [4], 81.2 µM; in assay [5] it was 77.9 µM; in assay [6] it was 41 µM. In addition, the TGI in [7] is more than 100 µM; in [8], 74 µM; in assay [9], 50.3 µM; in assay [10], 51.9 µM; in assay [11], more than 100 µM; in assay [12], 72 µM. For the same compound, the TGI was 70.1 µM in assay [13]; 48.8 µM in assay [14]; more than 100 µM in assay [15]; 44.2 µM in assay [16]; 67 µM in assay [17]; more than 100 µM in assay [18].

For `CCOC(=O)c1c(C)n(C)c2c1cc(O)c1[nH]c3c(c12)CCCC3`, the TGI in [1] was more than 100 µM; in [3], 29.2 µM; in assay [4], 37.2 µM; in assay [5], 66.3 µM; in assay [6] it was 43.6 µM; in assay [7], 19.4 µM. Besides, the TGI is 46.7 µM in assay [8]; 34.3 µM in assay [9]; 29.6 µM in [10]; 58.7 µM in [11]; more than 100 µM in assay [12]; 23.5 µM in assay [13]. Further, the TGI is 42.9 µM in [14]; 52.7 µM in assay [15]; 45.6 µM in assay [16]; 43.9 µM in assay [17]; more than 100 µM in [18].

For `CCOC(=O)c1c(C)n([O-])c2cc(Cl)c(Cl)cc2[n+]1=O`, the TGI in assay [1] is more than 100 µM; in assay [2], 29.1 µM; in assay [3], 43.9 µM; in assay [4] it was 24.1 µM; in assay [5], 53 µM; in [6] it was 45.9 µM. For the same compound, the TGI was more than 100 µM in [7]; 24.6 µM in assay [8]; more than 100 µM in assay [9]; 55.1 µM in assay [10]; 35.6 µM in [11]; 85.9 µM in [12]. Moreover, the TGI turned out to be 25.8 µM in [19]; 33.9 µM in [13]; 40.7 µM in assay [14]; 26.6 µM in assay [15]; 42.8 µM in [16]; 51.3 µM in assay [17]. This compound also displayed a TGI in assay [18] of 37.2 µM.

With `O=C1/C(=C/c2ccc(Oc3ccccc3)cc2)N=C(c2ccccc2)N1c1ccc(S(=O)(=O)Nc2nccs2)cc1`, the TGI is 85.5 µM in assay [1]; 6.87 µM in assay [2]; 72.3 µM in assay [3]; more than 100 µM in [6]; 38 µM in assay [7]; 34.9 µM in assay [8]. Also, the TGI in assay [9] is 15.8 µM; in [10], 6.86 µM; in [11], more than 100 µM; in assay [12], more than 100 µM; in assay [19] it was 25 µM; in [13], more than 100 µM. The TGI was more than 100 µM in [14]; more than 100 µM in [15]; 71.2 µM in assay [16]; more than 100 µM in [17]; 70.1 µM in assay [18].

Consider `Cc1nc2[nH]ncn2c(=O)c1CCCl`, for which the TGI in assay [2], in [3], in assay [4], in assay [5], in assay [6] and in assay [7] was more than 10 µM each time. Further, the TGI in assay [8], in assay [9], in assay [10], in assay [11], in assay [12] and in assay [19] was more than 10 µM each time. Moreover, the TGI in [13], in [14], in assay [15], in assay [16], in [17] and in assay [18] was more than 10 µM in each case.

With `O=C(O)CCC(N=NNc1ccc(-c2nc3ccccc3[nH]2)cc1)C(=O)O` (configuration not stated), the TGI in assay [1] was 73.2 µM; in assay [3] it was more than 100 µM; in assay [4], more than 100 µM; in assay [5], more than 100 µM; in [6], more than 100 µM; in assay [7] it was more than 100 µM. Moreover, the TGI in assay [8], in assay [9], in assay [10], in assay [11], in assay [12] and in assay [19] was more than 100 µM throughout. For the same compound, the TGI in [13], in assay [14], in [15], in assay [16], in assay [17] and in assay [18] was more than 100 µM throughout.

Regarding `O=C(c1ccccc1)C1C(c2ccccc2)N1S(=O)(=O)c1ccccc1` (configuration not stated), the TGI in [1], in [2], in assay [3], in assay [4], in assay [5] and in assay [6] was more than 100 µM throughout. For the same compound, the TGI in assay [7], in assay [9], in assay [10], in assay [11], in assay [12] and in assay [13] was more than 100 µM each time. The TGI in assay [15], in assay [16], in assay [17] and in assay [18] was more than 100 µM each time.

`CCC(C)C1NC(=O)C2CCCN2C(=O)C(CC(C)C)OC(=O)CCNC(=O)C(C)N(C)C(=O)C(C(C)C)N(C)C1=O` (configuration not stated) (cyclo([ξLac(3-iPr)]PI[NMeV][NMeA][βAla]); configuration not given here): the TGI is 8.05 µM in assay [1]; 14.9 µM in [2]; 6.49 µM in assay [3]; more than 100 µM in assay [4]; 29.2 µM in [5]; more than 17.9 µM in assay [6]. The TGI in [7] was more than 26.7 µM; in assay [8] it was 18.2 µM; in assay [9] it was 17.3 µM; in assay [10] it was 13.5 µM; in assay [11], more than 100 µM; in assay [12] it was more than 86.8 µM. The TGI in assay [19] is more than 56.5 µM; in assay [13] it was more than 100 µM; in assay [14] it was more than 100 µM; in assay [15], more than 71.6 µM; in [16], 21 µM; in assay [17] it was more than 100 µM. Besides, the TGI in [18] was more than 100 µM.
